From US9475817B2 (BRISTOL-MYERS SQUIBB COMPANY, priority 2012, dated 2016)
Counter-ions that a name gives are not always drawn.

Columns and labels:
CK1ε = CK1ε (Homo sapiens (Human), UniProt P49674); experiment: CK1ε kinase assay (Caliper LabChip, fluoresceinated peptide substrate); type: biochemical; details: 200 pM CK1ε, 50 μM ATP, 1.5 μM peptide substrate, 22 hours room temperature
Experimental: (§1) CK1ε and CK1δ Kinase Assays
(§2) The kinase assay was performed in V-bottom 384-well plates. […] The reaction was incubated at room temperature for 22 hours and terminated by adding 45 μl of 35 mM EDTA to each sample. […] Compounds were dissolved at 10 mM in dimethylsulfoxide (DMSO) and evaluated at eleven concentrations. IC50 values were derived by non-linear regression analysis.

CK1δ = CK1δ (Homo sapiens (Human), UniProt P48730); experiment: CK1δ kinase assay (Caliper LabChip, fluoresceinated peptide substrate); type: biochemical; details: 200 pM CK1δ, 50 μM ATP, 1.5 μM peptide substrate, 22 hours room temperature
Chain of CK1δ (P48730 whole entry): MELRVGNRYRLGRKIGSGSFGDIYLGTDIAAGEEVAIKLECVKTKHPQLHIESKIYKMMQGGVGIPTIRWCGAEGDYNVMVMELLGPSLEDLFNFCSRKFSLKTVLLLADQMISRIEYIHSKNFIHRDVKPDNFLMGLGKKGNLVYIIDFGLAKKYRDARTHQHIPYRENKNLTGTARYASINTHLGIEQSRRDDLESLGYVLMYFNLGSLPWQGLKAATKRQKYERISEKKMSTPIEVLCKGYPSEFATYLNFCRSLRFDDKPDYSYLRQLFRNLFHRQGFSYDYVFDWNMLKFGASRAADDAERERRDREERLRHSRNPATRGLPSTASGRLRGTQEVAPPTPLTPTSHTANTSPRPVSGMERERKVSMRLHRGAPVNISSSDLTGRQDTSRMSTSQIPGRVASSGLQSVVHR
Experimental: as §1, §2

Chain of CK1ε (P49674 whole entry): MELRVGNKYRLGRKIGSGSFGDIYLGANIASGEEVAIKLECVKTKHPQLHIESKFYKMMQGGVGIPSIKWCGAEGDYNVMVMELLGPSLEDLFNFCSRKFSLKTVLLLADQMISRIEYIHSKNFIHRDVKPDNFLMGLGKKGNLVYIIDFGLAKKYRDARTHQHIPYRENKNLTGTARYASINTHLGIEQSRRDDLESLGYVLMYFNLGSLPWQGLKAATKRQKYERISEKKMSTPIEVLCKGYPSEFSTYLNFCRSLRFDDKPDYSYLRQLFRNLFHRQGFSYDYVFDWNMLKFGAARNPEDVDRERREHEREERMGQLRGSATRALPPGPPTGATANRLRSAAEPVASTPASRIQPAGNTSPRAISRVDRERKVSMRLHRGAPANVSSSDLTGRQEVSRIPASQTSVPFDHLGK

Row | SMILES | IC50 (CK1ε) [nM] | IC50 (CK1δ) [nM]
1 | Cn1cc(-c2ccc3nc(NC(=O)c4ccccc4)c(F)n3n2)c(-c2ccc(F)cc2)n1 [Compound 192, N-(3-Fluoro-6-(3-(4-fluorophenyl)-1-methyl-1H-pyrazol-4-yl)imidazo[1,2-b]pyridazin-2-yl)benzamide] | 23.3 | 5.6
2 | Cn1cc(-c2ccc3nc(NC(=O)c4ccncc4)c(Br)n3n2)c(-c2ccc(F)cc2)n1 [Compound 193, N-(3-Bromo-6-(3-(4-fluorophenyl)-1-methyl-1H-pyrazol-4-yl)imidazo[1,2-b]pyridazin-2-yl)isonicotinamide] | 102 | 17
3 | Cn1cc(-c2ccc3nc(NC(=O)c4ccncc4)c(-c4ccncc4)n3n2)c(-c2ccc(F)cc2)n1 [Compound 194, N-(6-(3-(4-Fluorophenyl)-1-methyl-1H-pyrazol-4-yl)-3-(pyridin-4-yl)imidazo[1,2-b]pyridazin-2-yl)isonicotinamide, 2 TFA] | 554 | 97
4 | Cc1c(NC(=O)c2ccccc2)nc2ccc(-c3cn(C)nc3-c3ccc(F)cc3)nn12 [Compound 195, N-(6-(3-(4-Fluorophenyl)-1-methyl-1H-pyrazol-4-yl)-3-methylimidazo[1,2-b]pyridazin-2-yl)benzamide, 2 TFA] | 137 | 54
5 | Cc1nc(-c2ccncc2)sc1C(=O)Nc1cn2nc(-c3c(-c4ccc(F)cc4)nn(C)c3C3CCOCC3)ccc2n1 [Compound 200, N-(6-(3-(4-Fluorophenyl)-1-methyl-5-(tetrahydro-2H-pyran-4-yl)-1H-pyrazol-4-yl)imidazo[1,2-b]pyridazin-2-yl)-4-methyl-2-(pyridin-4-yl)thiazole-5-carboxamide] | 3 | 0.3
6 | Cn1nc(-c2ccc(F)cc2)c(-c2ccc3nc(NC(=O)c4ccnc(F)c4)cn3n2)c1-c1ccncc1 [Compound 202, 2-Fluoro-N-(6-(3-(4-fluorophenyl)-1-methyl-5-(pyridin-4-yl)-1H-pyrazol-4-yl)imidazo[1,2-b]pyridazin-2-yl)isonicotinamide] | 8.1 | 0.5
7 | Cn1nc(-c2ccc(F)cc2)c(-c2ccc3nc(NC(=O)c4ccncc4)cn3n2)c1-c1ccncc1 [Compound 204, N-(6-(3-(4-Fluorophenyl)-1-methyl-5-(pyridin-4-yl)-1H-pyrazol-4-yl)imidazo[1,2-b]pyridazin-2-yl)isonicotinamide] | 3.2 | 0.4
8 | Cn1nc(-c2ccc(F)cc2)c(-c2ccc3nc(NC(=O)c4cccc(-c5cccnc5)c4)cn3n2)c1-c1ccncc1 [Compound 205, N-(6-(3-(4-Fluorophenyl)-1-methyl-5-(pyridin-4-yl)-1H-pyrazol-4-yl)imidazo[1,2-b]pyridazin-2-yl)-3-(pyridin-3-yl)benzamide] | 9.8 | 0.9

Next, values leading:

Row | IC50 (CK1ε) [nM] | IC50 (CK1δ) [nM] | SMILES
9 | 2 | 0.2 | Cn1nc(-c2ccc(F)cc2)c(-c2ccc3nc(NC(=O)c4ccnc(F)c4)cn3n2)c1C1CCOCC1 [Compound 196, 2-Fluoro-N-(6-(3-(4-fluorophenyl)-1-methyl-5-(tetrahydro-2H-pyran-4-yl)-1H-pyrazol-4-yl)imidazo[1,2-b]pyridazin-2-yl)isonicotinamide]
10 | 1.8 | 0.3 | Cn1nc(-c2ccc(F)cc2)c(-c2ccc3nc(NC(=O)c4ccncc4)cn3n2)c1C1CCOCC1 [Compound 197, N-(6-(3-(4-Fluorophenyl)-1-methyl-5-(tetrahydro-2H-pyran-4-yl)-1H-pyrazol-4-yl)imidazo[1,2-b]pyridazin-2-yl)isonicotinamide]
11 | 4.8 | 0.5 | Cn1nc(-c2ccc(F)cc2)c(-c2ccc3nc(NC(=O)c4ccnc(N5CCOCC5)c4)cn3n2)c1C1CCOCC1 [Compound 198, N-(6-(3-(4-Fluorophenyl)-1-methyl-5-(tetrahydro-2H-pyran-4-yl)-1H-pyrazol-4-yl)imidazo[1,2-b]pyridazin-2-yl)-2-morpholinoisonicotinamide]
12 | 1.9 | 0.2 | Cn1nc(-c2ccc(F)cc2)c(-c2ccc3nc(NC(=O)c4cccc(-c5cccnc5)c4)cn3n2)c1C1CCOCC1 [Compound 199, N-(6-(3-(4-Fluorophenyl)-1-methyl-5-(tetrahydro-2H-pyran-4-yl)-1H-pyrazol-4-yl)imidazo[1,2-b]pyridazin-2-yl)-3-(pyridin-3-yl)benzamide]
13 | 2.3 | 0.3 | Cc1nc(-c2cccnc2)sc1C(=O)Nc1cn2nc(-c3c(-c4ccc(F)cc4)nn(C)c3C3CCOCC3)ccc2n1 [Compound 201, N-(6-(3-(4-Fluorophenyl)-1-methyl-5-(tetrahydro-2H-pyran-4-yl)-1H-pyrazol-4-yl)imidazo[1,2-b]pyridazin-2-yl)-4-methyl-2-(pyridin-3-yl)thiazole-5-carboxamide]
14 | 7.9 | 0.9 | Cn1nc(-c2ccc(F)cc2)c(-c2ccc3nc(NC(=O)c4ccnc(N5CCOCC5)c4)cn3n2)c1-c1ccncc1 [Compound 203, N-(6-(3-(4-Fluorophenyl)-1-methyl-5-(pyridin-4-yl)-1H-pyrazol-4-yl)imidazo[1,2-b]pyridazin-2-yl)-2-morpholinoisonicotinamide]
